Data reported in PubChem BioAssay AID328 (DTP/NCI, 2004).
“And” between values parts separate entries of the source, which are not always exact repeats. Equal entries are not always repeated. Toxic doses and inconclusive results are not listed. Residues, ends and D or L forms follow the SMILES beside them. *: point of attachment. Bn = c1ccc(C*)cc1

System: BDF1 mice, P388 leukemia ip, median survival T/C
Assay: NCI In Vivo Anticancer Drug Screen. Data for tumor model P388 Leukemia (intraperitoneal) in B6D2F1 (BDF1) mice
Settings: endpoint: median survival time, higher = longer survival
In short: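 Each value expresses how treatment altered survival: treated-mouse outcome over vehicle-mouse outcome, both groups bearing the transplanted tumour.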

[1] = dose: 12.5 mg/kg/injection, schedule: Q01DX009 (ip), vehicle: saline with Tween-80
[2] = dose: 25.0 mg/kg/injection, schedule: Q01DX009 (ip), vehicle: saline with Tween-80
[3] = dose: 50.0 mg/kg/injection, schedule: Q01DX009 (ip), vehicle: saline with Tween-80
[4] = dose: 100.0 mg/kg/injection, schedule: Q01DX009 (ip), vehicle: saline with Tween-80

SMILES: CC(=O)OCc1c(COC(C)=O)c(-c2ccc(Cl)cc2)n2c1CCC2
- T/C (dose: 12.5 mg/kg/injection, schedule: Q01DX009 (ip), vehicle: Klucel (hydroxypropylcellulose) (HPC)): 119 % of control
- T/C (dose: 25.0 mg/kg/injection, schedule: Q01DX009 (ip), vehicle: Klucel (hydroxypropylcellulose) (HPC)): 123 % of control
- T/C (dose: 50.0 mg/kg/injection, schedule: Q01DX009 (ip), vehicle: Klucel (hydroxypropylcellulose) (HPC)): 98 % of control

SMILES: C=C(CNC(C)(C)C)C(=O)c1ccccc1
- T/C (dose: 3.13 mg/kg/injection, schedule: Q01DX009 (ip), vehicle: saline): 116 % of control
- T/C (dose: 6.25 mg/kg/injection, schedule: Q01DX009 (ip), vehicle: saline): 116 % of control

SMILES: [N-]=[N+]=Nc1ccc(Cl)cc1C(=O)c1ccccc1
- T/C (dose: 25.0 mg/kg/injection, schedule: Q04DX003 (ip), vehicle: saline): 104 % of control
- T/C (dose: 50.0 mg/kg/injection, schedule: Q04DX003 (ip), vehicle: saline): 90 % of control
- T/C (dose: 100.0 mg/kg/injection, schedule: Q04DX003 (ip), vehicle: saline): 109 % of control

SMILES: C[n+]1ccccc1/C=C/c1cccc([N+](=O)[O-])c1
- T/C (dose: 5.0 mg/kg/injection, schedule: Q04DX003 (ip), vehicle: saline with Tween-80): 95 % of control
- T/C (dose: 10.0 mg/kg/injection, schedule: Q04DX003 (ip), vehicle: saline with Tween-80): 104 % of control
- T/C (dose: 20.0 mg/kg/injection, schedule: Q04DX003 (ip), vehicle: saline with Tween-80): 109 % of control

SMILES: CCOc1cc(/C=N\Nc2nnc(C)n2N)c(C)cc1N(CCCl)CCCl
- T/C (dose: 5.5 mg/kg/injection, schedule: Q01DX009 (ip), vehicle: saline with Tween-80): 200 % of control
- T/C (dose: 8.3 mg/kg/injection, schedule: Q01DX009 (ip), vehicle: saline with Tween-80): 209 % of control
- T/C [1]: 272 % of control
- T/C (dose: 18.7 mg/kg/injection, schedule: Q01DX009 (ip), vehicle: saline with Tween-80): 195 % of control
- T/C (dose: 40.0 mg/kg/injection, schedule: Q04DX003 (ip), vehicle: saline): 204 % of control
- T/C (dose: 50.0 mg/kg/injection, schedule: Q04DX003 (ip), vehicle: saline sonified): 168 % of control
- T/C (dose: 100.0 mg/kg/injection, schedule: Q04DX003 (ip), vehicle: saline sonified): 86 % of control

SMILES: COC(=O)C(CC(C)C)NC(=O)C(N)Cc1ccc(OCc2ccccc2)cc1 (stereo not drawn) (H-Tyr(Bn)-Leu-OMe; configuration not given here)
- T/C [1]: 105 % of control
- T/C [2]: 100 % of control
- T/C [3]: 105 % of control and 120 % of control
- T/C (dose: 50.0 mg/kg/injection, schedule: Q04DX003 (ip), vehicle: saline with Tween-80): 105 % of control
- T/C [4]: 105 % of control
- T/C (dose: 100.0 mg/kg/injection, schedule: Q04DX003 (ip), vehicle: saline with Tween-80): 100 % of control

SMILES: S=c1[nH]c2nccnc2[nH]1
- T/C [2]: 95 % of control
- T/C [3]: 100 % of control
- T/C [4]: 95 % of control
- T/C (dose: 200.0 mg/kg/injection, schedule: Q01DX009 (ip), vehicle: saline with Tween-80): 95 % of control
- T/C (dose: 400.0 mg/kg/injection, schedule: Q01DX009 (ip), vehicle: saline with Tween-80): 104 % of control

SMILES: Cc1cc(N2CCOCC2)nc(N2CCOCC2)c1C#N
- T/C (dose: 100.0 mg/kg/injection, schedule: Q01DX005 (ip), vehicle: saline with Tween-80): 91 % of control
- T/C (dose: 200.0 mg/kg/injection, schedule: Q01DX005 (ip), vehicle: saline with Tween-80): 99 % of control

SMILES: CCOC(=O)NC1=C(N2CC2C)C(=O)C(NC(=O)OCC)=C(N2CC2C)C1=O (stereo not drawn)
- T/C (dose: 3.12 mg/kg/injection, schedule: Q01DX001 (ip), vehicle: Klucel (hydroxypropylcellulose) (HPC)): 123 % of control
- T/C (dose: 12.5 mg/kg/injection, schedule: Q01DX001 (ip), vehicle: Klucel (hydroxypropylcellulose) (HPC)): 113 % of control

SMILES: COc1c2c(c(OC(C)=O)c3c1C(=O)c1ccccc1C3=O)CCCC2
- T/C (dose: 6.25 mg/kg/injection, schedule: Q01DX001 (ip), vehicle: saline): 115 % of control
- T/C (dose: 12.5 mg/kg/injection, schedule: Q01DX001 (ip), vehicle: saline): 115 % of control
- T/C (dose: 25.0 mg/kg/injection, schedule: Q01DX001 (ip), vehicle: saline): 115 % of control
- T/C (dose: 50.0 mg/kg/injection, schedule: Q01DX001 (ip), vehicle: saline): 115 % of control
- T/C (dose: 100.0 mg/kg/injection, schedule: Q01DX001 (ip), vehicle: saline): 115 % of control

SMILES: FC(F)(F)c1nc2nc(Cl)c(Cl)nc2[nH]1
- T/C (dose: 10.0 mg/kg/injection, schedule: Q01DX009 (ip), vehicle: other): 100 % of control
- T/C (dose: 20.0 mg/kg/injection, schedule: Q01DX009 (ip), vehicle: other): 109 % of control
- T/C (dose: 26.6 mg/kg/injection, schedule: Q01DX009 (ip), vehicle: other): 120 % of control
- T/C (dose: 44.0 mg/kg/injection, schedule: Q04DX003 (ip), vehicle: other): 118 % of control
- T/C (dose: 100.0 mg/kg/injection, schedule: Q04DX003 (ip), vehicle: other): 150 % of control
